Assay results taken from PubChem BioAssay AID463203 (Broad Institute, 2010).
The source made the active and inactive calls.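 How the source made its calls: active means more than half of replicate measurements showing over 20% loss of kinase signal relative to plate controls; inconclusive means some but at most half of replicates over 20% loss; inactive means no replicate over 20% signal loss.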

What follows are compounds tested against Glycogen synthase kinase-3 alpha (Homo sapiens) (UniProt P49840) (assay: concentration-response blocking of human GSK3A – biochemical, luminescence, cell-free homogeneous, retest, dose response (AID 463203)). Conditions: GSK-3 alpha enzyme, ADP-Glo luminescence, 60 min.
Glycogen synthase kinase-3 alpha (Homo sapiens), sequence (P49840 whole entry, looked up): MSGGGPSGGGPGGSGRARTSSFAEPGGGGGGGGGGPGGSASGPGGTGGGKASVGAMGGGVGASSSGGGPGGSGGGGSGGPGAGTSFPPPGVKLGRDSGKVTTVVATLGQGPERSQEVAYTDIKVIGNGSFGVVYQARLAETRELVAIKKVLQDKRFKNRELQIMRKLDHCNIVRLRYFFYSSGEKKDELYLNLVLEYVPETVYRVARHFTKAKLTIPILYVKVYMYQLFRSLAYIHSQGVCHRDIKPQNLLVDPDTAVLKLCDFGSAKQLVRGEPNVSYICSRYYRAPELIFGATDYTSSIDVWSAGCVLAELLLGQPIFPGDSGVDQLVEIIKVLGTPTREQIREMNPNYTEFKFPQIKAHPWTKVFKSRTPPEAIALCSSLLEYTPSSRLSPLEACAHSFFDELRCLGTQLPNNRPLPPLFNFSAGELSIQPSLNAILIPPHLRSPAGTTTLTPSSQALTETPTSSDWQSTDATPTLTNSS
In the case of `COc1ccc(-c2noc(CCC(=O)Nc3nc4ccccc4s3)n2)cc1`, the AC50 is reported as > 30 µM (inactive).
`COc1cccc(CC(=S)N2CCOCC2)c1` was tested, and the AC50 was > 30 µM (inactive).
With `CC(C)OC(=O)/C(C#N)=C/c1c[nH]c2ccccc12` the AC50 was > 30 µM (inactive).
`COc1ccc(-c2cc(=O)c3ccccc3o2)cc1` was tested, and the AC50 was > 30 µM (inactive).
With `CCOC(=O)c1[nH]c2c(c1-c1ccccc1)C(=O)CC(c1ccccc1)C2` (stereo unspecified) the AC50 was > 30 µM (inactive).
Work on `COc1ccc(/C=N/NC(=O)c2nnn(-c3nonc3N)c2-c2cccs2)cc1OC` yielded an AC50 of 1.41 µM.
With `Cc1ccc(CSCCNC(=O)c2ccc(C)cc2)cc1` the AC50 was > 30 µM (inactive).
`CCOC(=O)C1=C(CC)OC(N)=C(C#N)C1c1ccc(NC(C)=O)cc1` (stereo unspecified) was tested, and the AC50 was > 30 µM (inactive).
Compound `O=C1/C(=C/c2ccco2)Oc2c1ccc(O)c2CN1CCCCC1` has an AC50 of 10 µM.
In the case of `CCOC(=O)c1nnn(-c2nonc2N)c1-c1ccccc1Cl`, the AC50 is reported as 8.37 µM.
For `CC(C)COC(=O)N1CCCC1C(=O)Nc1nccs1` (stereo unspecified), the AC50 was > 30 µM (inactive).
With `CCC/C(=N/NC(=O)c1nnn(-c2nonc2N)c1CN1CCCCC1)c1ccccc1` the AC50 was 18.7 µM.
With `CN(Cc1ccccc1)c1ncnc(N)c1[N+](=O)[O-]` the AC50 was 18.8 µM.
`COc1ccc(-n2c(C)c([N+](=O)[O-])c3ccc(O)c(CN4CCCCC4)c32)cc1` showed an AC50 of 19.1 µM.
For `O=C(N/N=C/c1cccnc1)c1cccc(S(=O)(=O)N2CCCC2)c1`, the AC50 was > 30 µM (inactive).
With `CC(C)(C)N1C(=O)c2ccc(C(=O)O)cc2C1=O` the AC50 was > 30 µM (inactive).
`CN(C)c1ccc(/C=N/NC(=O)c2ccccc2Cl)cc1` was tested, and the AC50 was > 30 µM (inactive).
With `Cc1cc(=O)[nH]c2c(C)c(Cl)ccc12` the AC50 was > 30 µM (inactive).
`Cc1ccc2c(c1)Oc1ccc(NC(=O)CCl)cc1C(=O)N2` was tested, and the AC50 was > 30 µM (inactive).
With `S=c1sc2ccccc2n1CCc1ccncc1` the AC50 was 4.51 µM.
Work on `O=C(O)c1cccc(Nc2nc(-c3cccnc3)nc3ccccc23)c1` yielded an AC50 of 12.5 µM.
`O=C(NCc1ccc(C(=O)N2CCC3(CC2)OCCO3)cc1)c1cccc(Br)c1` was tested, and the AC50 was > 30 µM (inactive).
With `COc1cc(/C=N/O)ccc1OCc1ccc([N+](=O)[O-])cc1` the AC50 was > 30 µM (inactive).
For `CCOC(=O)c1nc(NCc2cccc(OC)c2)c2ccccc2n1`, the AC50 was > 30 µM (inactive).
`Cc1cccc(-c2nnc3n2N=C(c2ccccc2)CS3)c1` was tested, and the AC50 was > 30 µM (inactive).
For `CN(C)C(=S)Nc1ccc([N+](=O)[O-])cc1`, the AC50 was > 30 µM (inactive).
In the case of `Cc1cccc(NC(=O)CSc2nc3[nH]ncc3c(=O)n2-c2ccccc2)c1`, the AC50 is reported as > 30 µM (inactive).
Compound `CCCCn1c(O)c(C(CC)=NCCCn2ccnc2)c(=O)[nH]c1=O` has an AC50 of 13.9 µM.
For `C=CCn1cnc2c(c1=O)c1nc3ccccc3nc1n2/N=C/c1cc(OC)c(OC)c(OC)c1`, the AC50 was > 30 µM (inactive).
With `CCOC(=O)C1=C(O)/C(=C\c2sccc2C)N=C1C` the AC50 was > 30 µM (inactive).
`CC(=O)c1cc(-c2ccc(F)cc2)n(CCC(=O)Nc2cccc(C)n2)c1C` was tested, and the AC50 was > 30 µM (inactive).
`Cc1ccnc(NC(=O)CCC(=O)N(CC(=O)NCc2ccc(F)cc2)Cc2ccco2)c1` was tested, and the AC50 was > 30 µM (inactive).
With `Cc1ccc(C)c(N2CC(C(=O)Nc3nccs3)CC2=O)c1` (stereo unspecified) the AC50 was > 30 µM (inactive).
`Nc1nonc1-n1nnc(C(=O)N/N=C\c2cccc(Cl)c2)c1CN1CCOCC1` showed an AC50 of 15.2 µM.
`CN1CCN(Cc2c(C(=O)N/N=C/c3cccc(Br)c3)nnn2-c2nonc2N)CC1` was tested, and the AC50 was 20.2 µM.
Work on `COc1ccc(N2CCOCC2)c(NC(=O)c2ccc(Br)o2)c1` yielded an AC50 of 8.71 µM.
`COc1ccc(C2=Nn3c(nnc3-c3ccncc3)SC2)cc1` showed an AC50 of 5.49 µM.
With `O=C(NC(=S)Nc1cccc2cnccc12)c1ccccc1` the AC50 was > 30 µM (inactive).
Compound `NCc1cccc(CNc2ccc([N+](=O)[O-])cc2C(N)=O)c1` has an AC50 of 5.96 µM.
For `CC1=C(C(=O)OCc2ccccc2)C(c2cccc(Br)c2)NC(=O)N1` (stereo unspecified), the AC50 was 28.7 µM.
In the case of `CCc1c(C)c(C#N)c2nc3ccccc3n2c1NCc1ccccn1`, the AC50 is reported as 16.8 µM.
For `COc1ccc(-c2cc(C(F)(F)F)nc(SCCC(=O)NCc3ccccc3)n2)cc1`, the AC50 was > 30 µM (inactive).
For `O=C(Cn1c(NCCCO)nc2ccccc21)c1ccc([N+](=O)[O-])cc1`, the AC50 was > 30 µM (inactive).
In the case of `Cc1nc(SCC(=O)NCC2CCCO2)c2c(C)c(C)sc2n1` (stereo unspecified), the AC50 is reported as > 30 µM (inactive).
With `COC(=O)c1ccc(CN2C(=O)NC(CC(C)C)C2=O)cc1` (stereo unspecified) the AC50 was > 30 µM (inactive).
`CCOC(=O)N1CCc2c(sc3nc4n(c(=O)c23)N=C(c2ccc(OC)cc2)CS4)C1` was tested, and the AC50 was > 30 µM (inactive).
Work on `COc1ccc(C2=Nn3c(nnc3-c3ccncc3)SC2)cc1OC` yielded an AC50 of 2.37 µM.
In the case of `Cc1c(CN(C)C)c2c(n1Cc1ccccc1)C(=O)c1ccccc1-2`, the AC50 is reported as > 30 µM (inactive).
With `CN1/C(=C\C=C(C#N)C#N)C(C)(C)c2ccccc21` the AC50 was > 30 µM (inactive).
In the case of `Cc1ccccc1NC1=NCCCS1`, the AC50 is reported as > 30 µM (inactive).
In the case of `Cc1ccc(N=C2NC(=O)/C(=C\c3ccco3)S2)cc1`, the AC50 is reported as > 30 µM (inactive).
